Results taken from PMC12621189, “Optimization of Selective and CNS Penetrant Alkyne-Based TREK Inhibitors: The Discovery and Characterization of ONO-9517601 (VU6022856) and ONO-7927846 (VU6024391)” (Journal of Medicinal Chemistry, 2025).

Legend:
human TREK-1 (hTREK-1) = biological target: T1, human TREK-1 (hTREK-1) (Homo sapiens, UniProt O95069); assay: TREK-1 thallium flux assay (CHO-K1 cells stably expressing hTREK-1); format: cell-based; conditions: human TREK-1, thallium flux; read-out: h TREK-1 Tl+ IC50
T1 construct: expressed in transfected cells
T1 sequence (O95069 1-426): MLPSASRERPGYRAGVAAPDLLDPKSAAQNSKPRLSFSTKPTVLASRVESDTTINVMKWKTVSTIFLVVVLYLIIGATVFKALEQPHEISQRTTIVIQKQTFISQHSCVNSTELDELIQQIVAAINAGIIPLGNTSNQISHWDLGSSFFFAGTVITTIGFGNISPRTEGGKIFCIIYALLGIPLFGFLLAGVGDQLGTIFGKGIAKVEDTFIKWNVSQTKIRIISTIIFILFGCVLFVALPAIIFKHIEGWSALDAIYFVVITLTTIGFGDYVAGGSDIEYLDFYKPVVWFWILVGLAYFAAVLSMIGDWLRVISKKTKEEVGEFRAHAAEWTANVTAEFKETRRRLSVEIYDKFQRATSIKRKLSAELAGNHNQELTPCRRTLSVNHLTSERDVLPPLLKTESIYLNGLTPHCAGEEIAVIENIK
Procedure: Procedures for Biological Experiments
TREK-1 Thallium flux assay
CHO-K1 cells stably expressing hTREK-1 were cultured in T225 flask. The cells were loaded with FluxOR dye and plated in 384 well plate at the experiment day. Test compounds or control compound (tert-butyl (3-((4-(benzyloxy)-2-methylphenyl)carbamoyl)-4-chlorophenyl)carbamate) or 0.3% DMSO (vehicle control) were added directly to the cell plates and incubated for 10 min, and then treated with thallium stimulus buffer to initiate thallium flux.
To measure the efficacy and potency of test compounds, the change in fluorescence intensity (ΔRatio) and % inhibition were calculated using the following equations:
ΔRatio = (fluorescence intensity at 25 seconds after thallium addition)/(average of fluorescent intensity before thallium addition)
(§1) 0.3% DMSO - ΔRatio of 10 μM control compound)}x100
(§2) % inhibition vs compound concentration were plotted in XLfit and calculated IC50.
CHO-K1 cells stably expressing human TREK-1 (hTREK-1) were cultured in T225 flask.
The cells were loaded with FluxOR dye and plated in 384 well plate at the experiment day. Test compounds or control compound (tert-butyl (3-((4-(benzyloxy)-2-methylphenyl)carbamoyl)-4-chlorophenyl)carbamate) or 0.3% DMSO (vehicle control) which were prepared on separate plates were added to the cell plates and incubated for 10 min, and then the cells with test compounds or […]
chlorophenyl)carbamate) or 0.3% DMSO (vehicle control) were treated with thallium stimulus buffer to initiate thallium flux. To measure the efficacy and potency of test compounds, the change in fluorescence intensity (ΔRatio) and % inhibition were calculated using the following equations: […]

ChromatoLogD = format: physicochemical
[1] = Liver microsome intrinsic clearance, human; format: in vitro ADME; conditions: pH 7.4; human liver microsomes, predicted intrinsic clearance; read-out: LMS CLINT human
Procedure: (§3) were incubated in 100 mM potassium phosphate pH 7.4 buffer with 3 mM MgCl2 at 37 °C with constant shaking. After a 5 min preincubation, the reaction was initiated by the addition of NADPH (1 mM). At selected time intervals (0, 3, 7, 15, 25, and 45 min), aliquots were taken and subsequently placed into a 96-well plate containing cold acetonitrile with internal standard (50 ng/mL carbamazepine). Plates were then centrifuged at 3000 rcf (4 °C) for 10 min, and the supernatant was transferred to a separate 96-well plate and diluted 1:1 with water for LC/MS/MS analysis. The in vitro half-life ( 1/2, min, Eq. 1), intrinsic clearance (CLint, mL/min/kg, Eq. 2), and subsequent predicted hepatic clearance (CLhep, mL/min/kg, Eq. 3) was determined employing the […]
(§4) where k represents the slope from linear regression analysis of the natural log percent remaining of a test compound as a function of incubation time […]
(§5) (2) CLint = in vitroT x mg microsomes x gram liver x kg body wt ascale-up factors: of 20 (human) or 45 (rat) […]
(§6) where Qh (hepatic blood flow, mL/min/kg) is 21 (human) or 70 (rat).
(§7) LC/MS/MS Bioanalysis of Samples from Plasma Protein Binding and Intrinsic Clearance […]
(§8) Samples were analyzed on a Thermo Electron TSQ Quantum Ultra triple quad mass spectrometer (San Jose, CA) via electrospray ionization (ESI) with two Themo Electron Accella pumps (San Jose, CA), and a Leap Technologies CTC PAL autosampler (Carrboro, NC). Analytes were […]

[2] = Liver microsome intrinsic clearance, mouse; format: in vitro ADME; conditions: pH 7.4; mouse liver microsomes, predicted intrinsic clearance; read-out: LMS CLINT mouse
[3] = Plasma protein binding, rat; format: in vitro ADME; conditions: rat, plasma, pH 7.4, rat plasma, bound; read-out: PPB rat (converted)
Procedure: (§9) Plasma protein binding and Brain homogenate binding: Determination of fraction unbound (f u) in plasma was conducted in vitro via equilibrium dialysis using HTDialysis (HTD) membrane plates. The top half of the plate was filled with 100 uL of Dubelco’s Phosphate Buffered Saline, pH 7.4 (DPBS). Compounds were diluted into plasma from each species (5 µM final concentration), which was aliquoted in triplicate to the ‘bottom half’ of the prepared HTD plate wells. The HTD plate was sealed and incubated for 6 hours at 37 °C. Following incubation, each well (both top and bottom halves) were transferred (20 µL) to the corresponding wells of a 96-shallow-well (V-bottom) plate. The daughter plates were then matrix-matched (DPBS side wells received equal volume of plasma, and plasma side wells received equal volume of DPBS), and extraction solution (120 µL; acetonitrile containing 50 nM carbamazepine as IS) was added to all wells of both daughter plates to precipitate protein and extract test article. The plates were then sealed and centrifuged (3500 rcf) for 10 minutes at ambient temperature. Supernatant (60 µL) from each well of the daughter plates was then transferred to the corresponding wells of new daughter plates (96-shallow-well, V bottom) containing water (Milli-Q, 60 µL/well), and the plates were sealed in preparation for LC-MS/MS analysis (see LC-MS/MS analysis method below).
(§10) The unbound fraction (f u) was calculated following the equation below, and mean values for each species were calculated from 3 replicates. […]
(§11) Fraction unbound for both plasma and brain samples was determined using Equation 4.
(§12) Equation 4 Determination of fraction unbound in plasma. […]

[4] = Liver microsome intrinsic clearance, rat; format: in vitro ADME; conditions: pH 7.4; rat liver microsomes, predicted intrinsic clearance; read-out: LMS CLINT rat
Procedure: as §3, §4, §5, §6, §7, §8

[5] = Plasma protein binding, mouse; format: in vitro ADME; conditions: mouse, plasma, pH 7.4, mouse plasma, bound; read-out: PPB mouse (converted)
Procedure: as §9, §10, §11, §12

human TREK-2 (hTREK-2) = biological target: T2, human TREK-2 (hTREK-2) (Homo sapiens, UniProt P57789); assay: TREK-2 thallium flux assay (HEK293 cells stably expressing hTREK-2); format: cell-based; conditions: human TREK-2, thallium flux; read-out: h TREK-2 Tl+ IC50
T2 construct: expressed in transfected cells
T2 sequence (P57789 1-538): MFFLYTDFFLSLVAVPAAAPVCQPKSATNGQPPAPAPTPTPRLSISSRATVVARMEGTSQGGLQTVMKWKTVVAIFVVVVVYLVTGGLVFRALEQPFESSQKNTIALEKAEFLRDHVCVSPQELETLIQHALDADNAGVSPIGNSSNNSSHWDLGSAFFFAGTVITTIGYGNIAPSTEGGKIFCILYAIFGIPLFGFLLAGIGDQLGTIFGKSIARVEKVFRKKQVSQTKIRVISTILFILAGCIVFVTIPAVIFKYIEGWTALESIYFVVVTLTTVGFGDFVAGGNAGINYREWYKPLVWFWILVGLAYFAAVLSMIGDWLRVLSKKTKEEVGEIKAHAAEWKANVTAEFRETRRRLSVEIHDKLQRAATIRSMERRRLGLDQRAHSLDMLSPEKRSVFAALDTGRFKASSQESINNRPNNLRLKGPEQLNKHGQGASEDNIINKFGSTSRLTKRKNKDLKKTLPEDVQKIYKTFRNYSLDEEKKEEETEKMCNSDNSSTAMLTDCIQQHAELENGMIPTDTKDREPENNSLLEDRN
Procedure: as §1, §2
TREK-2 Thallium flux assay
HEK293 cells stably expressing human TREK-2 (hTREK-2) are plated in 384-well plates, cultured overnight, loaded with Thallos dye the following day. Test compounds or control compound (tert-butyl (3-((4-(benzyloxy)-2-methylphenyl)carbamoyl)-4-chlorophenyl)carbamate) or 0.3% DMSO (vehicle control) which are prepared on separate plates are added to the cell plates and incubated for 10 min, and then the cells were treated with thallium stimulus buffer to initiate […]
To measure the efficacy and potency of test compounds, the change in fluorescence intensity (ΔRatio) and % inhibition are calculated using the following equations: […]

Row | SMILES | IC50 (human TREK-1 (hTREK-1)) [nM] | chromatographic logD (ChromatoLogD) | CLint scaled at 1 µM [1] [mL/min/kg] | CLint scaled at 1 µM [2] [mL/min/kg] | fraction unbound at 6 h, 5 µM [3] | CLint scaled at 1 µM [4] [mL/min/kg] | fraction unbound at 6 h, 5 µM [5] | IC50 (human TREK-2 (hTREK-2)) [nM]
1 | Cc1cc(C#Cc2ccccc2)cnc1NC(=O)c1cc(-c2noc(C3CCOC3)n2)ccc1Cl (centres unmarked) [Compound 13b, 2-Chloro-N-(3-methyl-5-(phenylethynyl)pyridin-2-yl)-5-(5-(tetrahydrofuran-3-yl)-1,2,4-oxadiazol-3-yl)benzamide] | 48 | 5.01 | 71 | 68 | – | – | – | –
2 | Cc1cc(C#Cc2ccccc2)cnc1NC(=O)c1c(Cl)cnn1-c1ccc2c(cnn2C)c1 [Compound 15c, 4-Chloro-1-(1-methyl-1H-indazol-5-yl)-N-(3-methyl-5-(phenylethynyl)pyridin-2-yl)-1H-pyrazole-5-carboxamide] | 84 | – | – | – | 0.002 | – | – | –
3 | Cc1cc(C#Cc2ccccc2)cnc1NC(=O)c1c(Cl)cnn1CCCC#N [Compound 15d, 4-Chloro-1-(3-cyanopropyl)-N-(3-methyl-5-(phenylethynyl)pyridin-2-yl)-1H-pyrazole-5-carboxamide] | – | – | 9 | – | – | 30 | 0.001 | –
4 | CC(=O)N1C[C@H]2C[C@H](n3ncc(Cl)c3C(=O)Nc3ncc(C#Cc4ccccc4)cc3C)C[C@H]2C1 [Compound 15g, 1-((3aR,5s,6aS)-2-Acetyloctahydrocyclopenta[c]pyrrol-5-yl)-4-chloro-N-(3-methyl-5-(phenylethynyl)pyridin-2-yl)-1H-pyrazole-5-carboxamide] | – | – | – | – | 0.009 | – | – | –
5 | CC(=O)N1CC[C@@H](n2ncc(Cl)c2C(=O)Nc2ncc(C#Cc3ccccc3)cc2C)[C@H](F)C1 [Compound 16b, 1-((3R,4R)-1-Acetyl-3-fluoropiperidin-4-yl)-4-chloro-N-(3-methyl-5-(phenylethynyl)pyridin-2-yl)-1H-pyrazole-5-carboxamide] | 96 | – | 13 | – | – | 94 | – | 290
